The results in this text go back to patent publication US20240026461A1, “BCL10 MUTATIONS AS BIOMARKERS FOR TARGETED THERAPY IN B CELL LYMPHOMAS” (priority 2022, published 2024).

The subject of one assay is OCI-LY10^R58Q. Kind of assay: Growth inhibition assay (CellTiter Glo), OCI-Ly10 cells expressing BCL10 R58Q. It counts as cell-based. Conditions: Homo sapiens, 96 h, read-out: IC50, growth inhibition, BTK inhibitors. How it is done: (§1) DLBCL cell lines were cultured in exponential condition and the cell growth was determined by CellTiter Glo (Promega). 3000-5000 cells were seeded and cultured in each well of 384 well plate for 96 h and treated with compounds every 48 h. Luminescence was read at the endpoint with the Synergy NEO microplate reader (BioTek). The value of compound treated cells was normalized to their vehicle treated controls and then used to calculate IC50 in GraphPad Prism (RRID:SCR_002798).
(§2) Given the distinct functional profiles, CARD11 dependencies, and MALT1 activation effects of the BCL10 CARD and truncation mutants, the inventors designed experiments to evaluate whether, and to what extent, these mutant BCL10 proteins might confer BTK inhibitor resistance. Isogenic ABC-DLBCL cells expressing BCL10WT, BCL10^R58Q and BCL10^E140X proteins were treated with escalating doses of three chemically distinct covalent BTK inhibitors: ibrutinib, acalabrutinib, or zanubrutinib. The cellular proliferation rates of the treated cells were measured using an ATP fluorescence assay after 96 hours of drug exposure.
(§3) Isogenic BCL10^WT, BCL10^R58Q and BCL10^E140X ABC-DLBCLs were exposed to increasing concentrations of each of these compounds for 96 hours.

Assay [1] concerns BCL10^E140X expressing ABC-DLBCL xenografts. Kind of assay: Xenograft, ibrutinib treatment, BCL10^E140X tumors. Format: in vivo, mice. Conditions: ibrutinib 37mpk, oral gavage, Q.D. The text has this:
(§4) FIG. 6A-6K illustrate that BCL10 gain-of-function mutant lymphomas are resistant to upstream Bruton's tyrosine kinase (BTK) inhibitors. FIG. 6A illustrates growth inhibition assays of human diffuse large B-cell lymphoma (HBL1) cells and OCI-Ly10 lymphoma cells expressing wild type or mutant BCL10 protein in response to the BTK inhibitor Acalabrutinib. X axis, concentration of compound (M); Y axis, inhibition of cell growth normalized to vehicle treated cells. *p<0.05; **p<0.01; ****p<0.0001; ns, not significant. FIG. 6B illustrates growth inhibition assays of human diffuse large B-cell lymphoma (HBL1) cells and OCI-Ly10 lymphoma cells expressing wild type or mutant BCL10 protein in response to the BTK inhibitor Zanubrutinib. […] FIG. 6D illustrates luciferase activity measured in the MALT1 GloSensor reporter cell lines upon BTK inhibitor Acalabrutinib treatment. […] FIG. 6E illustrates luciferase activity measured in the MALT1 GloSensor reporter cell lines upon BTK inhibitor Zanubrutinib treatment. […] FIG. 6F illustrates luciferase activity measured in the MALT1 GloSensor reporter cell lines upon BTK inhibitor Ibrutinib treatment. […] AUC was calculated with Prism. FIG. 6J graphically illustrates tumor weight measured at the endpoint of tumors formed from xenografts of HBL1 cells expressing WT and mutant BCL10 (n=5-6/group). […]

In the next assay the test system is HBL1^E140X. Nature of the assay: Growth inhibition assay (CellTiter Glo), HBL1 cells expressing BCL10 E140X. Format: cell-based. Conditions: Homo sapiens, 96 h, read-out: IC50, growth inhibition, BTK inhibitors. How it is done: as §1, §2, §3
Background: ATP-based viability assays read luminescence as a measure of living cells.

A further assay deals with OCI-LY10^E140X. Kind of assay: Growth inhibition assay (CellTiter Glo), OCI-Ly10 cells expressing BCL10 E140X. Format: cell-based. Conditions: Homo sapiens, 96 h, read-out: IC50, growth inhibition, BTK inhibitors. The procedure: as §1, §2, §3
The test system of assay [2] is BCL10^R58Q expressing ABC-DLBCL xenografts. Kind of assay: Xenograft, ibrutinib treatment, BCL10^R58Q tumors. Format: in vivo, mice. Conditions: ibrutinib 37mpk, oral gavage, Q.D.
Text: as §4

For another assay, the system named is HBL1^WT. Kind of assay: Growth inhibition assay (CellTiter Glo), HBL1 cells expressing BCL10 WT. It counts as cell-based. Conditions: Homo sapiens, 96 h, read-out: IC50, growth inhibition, BTK inhibitors. The procedure: as §1, §2, §3
A further assay has as its system OCI-LY10^WT. Kind of assay: Growth inhibition assay (CellTiter Glo), OCI-Ly10 cells expressing BCL10 WT. Format: cell-based. Conditions: Homo sapiens, 96 h, read-out: IC50, growth inhibition, BTK inhibitors. How it is done: as §1, §2, §3
Assay [3] relates to BCL10^WT expressing ABC-DLBCL xenografts. Kind of assay: Xenograft, ibrutinib treatment, BCL10^WT tumors. Format: in vivo, mice. The following applies: ibrutinib 37mpk, oral gavage, Q.D.
Text: as §4

For the next assay, the system named is HBL1^R58Q. Nature of the assay: Growth inhibition assay (CellTiter Glo), HBL1 cells expressing BCL10 R58Q. Format: cell-based. Conditions: Homo sapiens, 96 h, read-out: IC50, growth inhibition, BTK inhibitors. The procedure: as §1, §2, §3
In a further assay the target is T1, MALT1 (Ig1-Ig2) (human, UniProt Q9UDY8 125-309).
T1 construct: domain: Ig1-Ig2; also called Ig1-Ig2 construct of MALT1; MALT1 (207-309)
T1 sequence (looked up): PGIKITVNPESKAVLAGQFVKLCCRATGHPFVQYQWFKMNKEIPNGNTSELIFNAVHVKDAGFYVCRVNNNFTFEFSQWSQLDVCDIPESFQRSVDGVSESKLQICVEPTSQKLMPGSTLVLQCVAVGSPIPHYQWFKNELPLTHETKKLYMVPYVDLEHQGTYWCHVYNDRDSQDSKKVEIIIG
Nature of the assay: His pull-down after co-expression in E. coli, Coomassie-stained SDS-PAGE. The procedure:
The inventors designed experiments to determine whether there were additional MALT1-binding sites on BCL10 at its largely unstructured C-terminus. The C-terminal region was divided into two halves and MALT1 pull-down studies were performed. […] Of note, unlike the interaction between BCL10 CARD and MALT1 death domain (DD) in the filamentous form, the interaction between BCL10 C-terminal region and MALT1 Ig1-Ig2 is monomeric as assessed by gel filtration chromatography of the complex.

Assay [4] concerns the target T2, MALT1 (of the lymphoma cell lysates, detected with anti-MALT1) (UniProt Q9UDY8 2-824, limits assumed).
T2 construct: Cellular MALT1 co-precipitated or co-fractionated with Flag-BCL10; HBL1 is called a human lymphoma line
T2 sequence (looked up): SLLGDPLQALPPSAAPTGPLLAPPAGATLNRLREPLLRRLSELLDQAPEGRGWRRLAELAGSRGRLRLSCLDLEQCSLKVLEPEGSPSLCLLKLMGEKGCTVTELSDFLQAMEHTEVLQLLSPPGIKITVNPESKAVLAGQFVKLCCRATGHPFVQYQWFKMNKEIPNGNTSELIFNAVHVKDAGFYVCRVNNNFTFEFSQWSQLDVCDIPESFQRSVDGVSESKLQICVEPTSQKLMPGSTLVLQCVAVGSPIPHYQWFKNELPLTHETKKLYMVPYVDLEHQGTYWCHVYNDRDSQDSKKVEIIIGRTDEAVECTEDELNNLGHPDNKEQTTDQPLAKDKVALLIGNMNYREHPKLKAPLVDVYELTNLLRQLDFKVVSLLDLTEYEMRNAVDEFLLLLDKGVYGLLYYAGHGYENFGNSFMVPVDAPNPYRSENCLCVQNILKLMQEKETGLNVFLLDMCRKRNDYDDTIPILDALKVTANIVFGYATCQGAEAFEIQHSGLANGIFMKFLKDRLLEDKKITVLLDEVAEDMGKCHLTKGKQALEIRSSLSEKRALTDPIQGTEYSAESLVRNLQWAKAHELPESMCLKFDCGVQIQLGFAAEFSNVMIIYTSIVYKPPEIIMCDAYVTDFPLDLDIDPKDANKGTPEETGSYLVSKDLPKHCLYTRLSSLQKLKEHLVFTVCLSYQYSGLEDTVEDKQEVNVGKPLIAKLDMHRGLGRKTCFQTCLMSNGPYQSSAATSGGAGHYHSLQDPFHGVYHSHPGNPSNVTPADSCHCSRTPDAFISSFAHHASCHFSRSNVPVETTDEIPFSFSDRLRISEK
Nature of the assay: anti-Flag co-immunoprecipitation from Raji cells, anti-MALT1 blot. The procedure:
Lymphoma cells (10⁸) were collected, washed with cold PBS and resuspended with lysis buffer (1% NP40, 10% glycerol, 150 mM NaCl, 20 mM Tris-HCL pH 7.5, and freshly added protease inhibitors). The lysates were centrifuged at 15,000 g, 4° C. for 15 min and the supernatant was then collected and incubated with 50 μL equilibrated anti-Flag magnetic beads (Sigma-Aldrich Cat #M8823, RRID:AB_2637089) at 4° C. for 3 h. The beads were washed 3 times with lysis buffer and followed by 3 times washing with the lysis buffer without NP40. SDS loading buffer without […] reagent was added and boiled at 95° C. for 5 min. The elution was added for […] (final 10%), and ready to run western blot after boiling at 95° C. for 5 min.
To investigate how the truncation mutants might affect CBM complex formation, Flag-tagged wild type and mutant forms of BCL10 were expressed in Raji cells, which lack constitutive B-cell receptor (BCR) signaling. Anti-Flag co-immunoprecipitations were performed on cell lysates. […] In contrast, there was less binding of MALT1 to BCL10^E140X, as well as to the similar BCL10^{K146Nfs*2} truncation mutant (FIG. 4A).

A word on the IC50: it is the point on the concentration scale where inhibition reaches its midpoint.

`C=CC(=O)N1CCC[C@@H](n2nc(-c3ccc(Oc4ccccc4)cc3)c3c(N)ncnc32)C1` [Ibrutinib]: the IC50 with OCI-LY10^R58Q stood at 2.2 nM; in the assay with HBL1^E140X it was 11 nM; in the assay with OCI-LY10^E140X, 3.3 nM; with HBL1^WT it was 4 nM; in the assay on OCI-LY10^WT, 0.66 nM; in the assay on HBL1^R58Q, 6.1 nM. In addition, the “tumor growth of xenografts” value in assay [1] is reported as “no significant anti-tumor effect”; in assay [2] it was “no significant anti-tumor effect”; in assay [3], “suppressed growth”; in assay [3] (listed as ibrutinib) it was “expected growth suppression”.

B1: His-tagged BCL10 (116-164) (other)
chain: GLKCSSCEPFPDGATNNLSRSNSDESNFSEKLRASTVMYHPEGESSTTP
notes: Co-expressed with MALT1 Ig1-Ig2 in E. coli; not shown: His tag
As to B1, in the assay with MALT1 (Ig1-Ig2), the binding result is “no binding”.

B2: Flag-BCL10^E140X (other)
chain: MEPTAPSLTEEDLTEVKKDALENLRVYLCEKIIAERHFDHLRAKKILSREDTEEISCRTSSRKRAGKLLDYLQENPKGLDTLVESIRREKTQNFLIQKITDEVLKLRNIKLEHLKGLKCSSCEPFPDGATNNLSRSNSD
notes: Range 1-139 follows from the name E140X (stop codon at position 140); Expressed in Raji and HBL1 cells; also called Flag tagged E140X; truncating mutant at position 140; not shown: Flag tag
With B2, in [4], the binding result is given as “binds”.
